The values below come from patent US3937832A, “Esters of 2,2-diphenyl-cyclopropane-carboxylic acids as cough suppressants” (Societe anonyme dite: Hexachimie, priority 1974, dated 1976).

Series [1] concerns subjects suffering from chronic bronchitis. Briefly: Clinical experiments on subjects suffering from chronic bronchitis. Type of series: in vivo, human. The note with it: subjects with chronic bronchitis. Here is the method: Clinical experiments were also carried out with the product of Example 1 on subjects suffering from chronic bronchitis.
The test system of series [2] is rats. The series is described as follows: Acute toxicity, lethal doses two days after intraperitoneal treatment. Type of series: in vivo. The note with it: rat. On the procedure: (§1) The products tested are dissolved in a […] sodium chloride solution or, if they are insoluble in this solution, suspended using "Tween 80" (for oral and intraperitoneal administration) or dissolved in polyethylene glycol 300 (for intravenous administration).
The acute toxicity is determined on batches, each of two rats. The doses administered extend from 4 to 512 mg./kg. in geometrical progression, constant ratio 2.
Table II below gives the 0 to 100 (%) lethal doses, two days after treatment, in mg./kg. administered intraperitoneally.

Series [3] relates to phenylbenzoquinone-induced reactions (stretching of the body). Briefly: Antalgic activity: inhibition of phenylbenzoquinone-induced stretching. Type of series: in vivo. The note with it: Mus musculus, 1 h, read-out: percentage inhibition relative to control animals; for inhibition in vivo at 16 mg/kg / inhibition in vivo at 64 mg/kg / inhibition in vivo at 32 mg/kg: mice, oral; for inhibition in vivo at 128 mg/kg: po. Here is the method: as §1
The products to be tested are administered orally to batches of six mice each weighing 19-21 g. One hour afterwards, 0.20 ml. of an aqueous-alcoholic solution containing 0.02% of phenylbenzoquinone (phenylbenzoquinone: 20 mg, 96% alcohol; 5 ml; water q.s.p. 100 ml) is injected intraperitoneally. The number of reactions (stretching of the body) from the 5th to the 10th minutes following the injection of phenylbenzoquinone is counted.
Table IV gives the percentage inhibition relative to control animals. __________________________________________________________________________ Compound of Example No. Dose, mg/kg 1 2 3 administered and 4 5 7 9 10 11 12 13 14 15 16 18 19 20 orally 6 17 8 __________________________________________________________________________ 16 10 57 -- 23 -- 25 14 21 22 45 24 35 29 40 43 3 26 32 -- 38 37 -- 0 -- -- -- -- -- -- -- -- -- -- -- -- 64 31 63 -- 17 -- 25 19 46 38 36 24 38 29 28 55 26 38 128 -- -- 41 -- 19 -- -- -- -- -- -- -- -- -- -- -- -- __________________________________________________________________________

Series [4] deals with cough reaction to stimulation of the upper laryngeal nerves. The series is described as follows: Anti-tussive activity: Domenjoz method (stimulation of upper laryngeal nerves). The note with it: anaesthetised cats, intravenous (femoral vein). The series is classed as in vivo, cat. Also noted: key: 0: inactive; +: marked diminution of cough; ++: suppression of cough for 5 to 15 minutes; +++: suppression of cough for more than 15 minutes. Here is the method:
as §1
Cats are anaesthetised by intraperitoneal injection of 30 mg./kg. of sodium mebubarbital. The arterial pressure is measured on the femoral artery by a Statham P 23 Db gauge. A tracheotomy is carried out; a Y-shaped cannula allows a part of the air breathed out to be branched off onto a Statham PM 6 gauge; the cardiac rhythm is measured by integration of the QRS complexes of the electrocardiogram. All these measurements are amplified and recorded on a Beckman Dynograph. The two upper laryngeal nerves are very carefully dissected and stimulated for 10 seconds by a surging current generated by a Hugo Sachs Stimulator I: voltage 3 volts, duration […], frequency 50 cycles/second. The test products are injected into the femoral vein. The first stimulation takes place 5 minutes after administration of the product and then every 5 minutes until the reaction returns to the initial amplitude. Each nerve is stimulated in turn (left-hand nerve: 5, 15, 25 minutes etc; right-hand nerve 10, […] minutes etc. after treatment).
+ marked diminution of cough
++ suppression of cough for 5 to 15 minutes
+++ suppression of cough for more than 15 minutes

Series [5] can be described thus: Solubility under the conditions of the local anaesthetic test. The series is classed as physicochemical. The note with it: sodium chloride solution, pH of 6 to 7. Here is the method:
This is investigated by the technique of Bulbring and Wajda. The backs of male guinea pigs weighing 350-450 g. are shaved with an electric razor. 0.1 ml. of a solution of the compounds to be tested is injected into the dermis (only those products which are soluble in the sodium chloride solution and give a pH of 6 to 7 are examined). Four points spaced 2 cm apart are marked on the skin, the product being administered at two of these and the solvent being administered at the remaining two. The skin reflex is examined by pricking each point six times with a mounted bristle. The number of positive reactions is counted and an inhibition percentage is calculated from the total number of positive reactions over the course of 30 minutes. Table V gives the inhibition percentages measured as a function of the concentrations of the solutions. The compounds of Examples 7, 18 and 19 are insoluble under the experimental conditions.

SMILES strings stand for the structures.

As for `O=C(OCCN1CCCCC1)C1CC1(c1ccccc1)c1ccccc1` (stereo not drawn) [Example 1, β-Piperidino-ethyl ester of 2,2-diphenyl-cyclopropane-carboxylic acid], in series [1], the effect on cough entry is “suppression of the cough”, the facilitation of expectoration entry is on record as “facilitation of expectoration” and the “sensation of feeling better” value is given as “a sensation of feeling better”. Further, in series [1] ("the latter" = expectoration), the reduction in expectoration entry is given as “a reduction in the latter”. For the same compound, in series [2], the LD0 turned out to be 64 mg/kg and the LD100 was 128 mg/kg. Moreover, in series [3], the inhibition in vivo at 16 mg/kg turned out to be 10% and the inhibition in vivo at 64 mg/kg was 31%.

For the compound `O=C(OCCOCCN1CCCC1)C1CC1(c1ccccc1)c1ccccc1` (centres unmarked) [Example 2, 2-(2'-pyrrolidino-ethoxy)-ethyl ester of 2,2-diphenyl-cyclopropane carboxylic acid], in series [2], the LD0 worked out at 32 mg/kg and the LD100 was found to be 128 mg/kg. Moreover, in series [3], the inhibition in vivo at 16 mg/kg amounted to 57%, the inhibition in vivo at 32 mg/kg turned out to be 38% and the inhibition in vivo at 64 mg/kg came out at 63%. The “Rating (anti-tussive activity)” value in series [4] is “+”.

In series [2], `O=C(OCCN1CCOCC1)C1CC1(c1ccccc1)c1ccccc1` (stereo not drawn) [Example 3, β-Morpholino-ethyl ester of 2,2-diphenyl-cyclopropane-carboxylic acid] displayed an LD0 of 128 mg/kg and an LD100 of 256 mg/kg. In addition, in series [3], the inhibition in vivo at 32 mg/kg was found to be 37% and the inhibition in vivo at 128 mg/kg was 41%.

Turning to `CN(C)CCOC(=O)C1CC1(c1ccccc1)c1ccccc1` (centres unmarked) [Example 4], in series [2], the LD0 worked out at 128 mg/kg and the LD100 worked out at 256 mg/kg. In addition, in series [3], the inhibition in vivo at 16 mg/kg worked out at 23% and the inhibition in vivo at 64 mg/kg turned out to be 17%.

For `O=C(OCCN1CCCC1)C1CC1(c1ccccc1)c1ccccc1` (centres unmarked) [Example 5], in series [2], the LD0 was 128 mg/kg and the LD100 came out at 256 mg/kg. Besides, in series [3], the inhibition in vivo at 32 mg/kg is 0% and the inhibition in vivo at 128 mg/kg was found to be 19%.

In series [2], `O=C(OCCN1CCCCCC1)C1CC1(c1ccccc1)c1ccccc1` (centres unmarked) [Example 7] showed an LD0 of 64 mg/kg and an LD100 of 128 mg/kg. In series [3], the inhibition in vivo at 16 mg/kg came out at 25% and the inhibition in vivo at 64 mg/kg was found to be 25%. The “solubility under the experimental conditions” value (“solubility” for short) in series [5] is reported as “insoluble”.

As for `CN1CCN(CCOC(=O)C2CC2(c2ccccc2)c2ccccc2)CC1` (centres unmarked) [Example 9], in series [2], the LD0 came out at 64 mg/kg and the LD100 stood at 128 mg/kg. Also, in series [3], the inhibition in vivo at 16 mg/kg came to 14% and the inhibition in vivo at 64 mg/kg amounted to 19%. In addition, the “Rating (anti-tussive activity)” value in series [4] is “+”.

Take `CC1CCCN(CCOC(=O)C2CC2(c2ccccc2)c2ccccc2)C1` (centres unmarked) [Example 10]: in series [2], the LD0 was found to be 64 mg/kg and the LD100 was determined as 256 mg/kg. In series [3], the inhibition in vivo at 16 mg/kg turned out to be 21% and the inhibition in vivo at 64 mg/kg stood at 46%.

In series [2], `CC1CCN(CCOC(=O)C2CC2(c2ccccc2)c2ccccc2)CC1` (centres unmarked) [Example 11] gave an LD0 of 64 mg/kg and an LD100 of 256 mg/kg. Further, in series [3], the inhibition in vivo at 16 mg/kg was 22% and the inhibition in vivo at 64 mg/kg came to 38%. Moreover, the “Rating (anti-tussive activity)” value in series [4] is “+”.

In series [2], `CC1CCCC(C)N1CCOC(=O)C1CC1(c1ccccc1)c1ccccc1` (centres unmarked) [Example 12] displayed an LD0 of 32 mg/kg and an LD100 of 128 mg/kg. For the same compound, in series [3], the inhibition in vivo at 16 mg/kg amounted to 45% and the inhibition in vivo at 64 mg/kg is 36%.

As to `Cc1ccc(C2(c3ccc(C)cc3)CC2C(=O)OCCN2CCCC2)cc1` (centres unmarked) [Example 13], in series [2], the LD0 turned out to be 128 mg/kg and the LD100 came to 256 mg/kg. Moreover, in series [3], the inhibition in vivo at 16 mg/kg is 24% and the inhibition in vivo at 64 mg/kg stood at 24%.

In series [2], `Cc1ccc(C2(c3ccc(C)cc3)CC2C(=O)OCCN2CCCCC2)cc1` (centres unmarked) [Example 14] gave an LD0 of 256 mg/kg and an LD100 of 512 mg/kg. Also, in series [3], the inhibition in vivo at 16 mg/kg turned out to be 35% and the inhibition in vivo at 64 mg/kg was 38%.

In series [2], `O=C(OCCN1CCCCC1)C1CC1(c1ccc(Cl)cc1)c1ccc(Cl)cc1` (centres unmarked) [Example 15] came in with an LD0 of 128 mg/kg and an LD100 of 256 mg/kg. In series [3], the inhibition in vivo at 16 mg/kg was 29% and the inhibition in vivo at 64 mg/kg was 29%. In addition, the “Rating (anti-tussive activity)” value in series [4] is listed as “+”.

In series [2], `COc1ccc(C2(c3ccc(OC)cc3)CC2C(=O)OCCN2CCCCC2)cc1` (centres unmarked) [Example 16] yielded an LD0 of 128 mg/kg and an LD100 of 512 mg/kg. Also, in series [3], the inhibition in vivo at 16 mg/kg worked out at 40% and the inhibition in vivo at 64 mg/kg turned out to be 28%. For the same compound, the “Rating (anti-tussive activity)” value in series [4] is on record as “+”.

In the case of `O=C(OCCOCCN1CCCCC1)C1CC1(c1ccccc1)c1ccccc1` (centres unmarked) [Example 18], in series [2], the LD0 is 64 mg/kg and the LD100 amounted to 256 mg/kg. In series [3], the inhibition in vivo at 16 mg/kg came to 43% and the inhibition in vivo at 64 mg/kg was found to be 55%. Also, in series [5], the “solubility” value was “insoluble”.

In series [2], `O=C(OCCOCCN1CCCCCC1)C1CC1(c1ccccc1)c1ccccc1` (centres unmarked) [Example 19] had an LD0 of 64 mg/kg and an LD100 of 128 mg/kg. In addition, in series [3], the inhibition in vivo at 16 mg/kg was determined as 3% and the inhibition in vivo at 64 mg/kg was 26%. Also, in series [4], the “Rating (anti-tussive activity)” value was “+”. Further, in series [5], the “solubility” value is recorded as “insoluble”.

In series [2], `CN1CCN(CCOCCOC(=O)C2CC2(c2ccccc2)c2ccccc2)CC1` (centres unmarked) [Example 20] gave an LD0 of 64 mg/kg and an LD100 of 128 mg/kg. Moreover, in series [3], the inhibition in vivo at 16 mg/kg was 26% and the inhibition in vivo at 64 mg/kg was 38%. Moreover, in series [4], the “Rating (anti-tussive activity)” value was “+”.
